# Values quoted from earlier work in patent publication US12296050B2, “Pharmaceutical compositions comprising maralixibat and uses thereof” (Mirum Pharmaceuticals, Inc., priority 2023, dated 2025).
# Molecular target: T1, apical sodium co-dependent bile acid transport (Homo sapiens, UniProt Q12908)
# T1 sequence (Q12908 1-348): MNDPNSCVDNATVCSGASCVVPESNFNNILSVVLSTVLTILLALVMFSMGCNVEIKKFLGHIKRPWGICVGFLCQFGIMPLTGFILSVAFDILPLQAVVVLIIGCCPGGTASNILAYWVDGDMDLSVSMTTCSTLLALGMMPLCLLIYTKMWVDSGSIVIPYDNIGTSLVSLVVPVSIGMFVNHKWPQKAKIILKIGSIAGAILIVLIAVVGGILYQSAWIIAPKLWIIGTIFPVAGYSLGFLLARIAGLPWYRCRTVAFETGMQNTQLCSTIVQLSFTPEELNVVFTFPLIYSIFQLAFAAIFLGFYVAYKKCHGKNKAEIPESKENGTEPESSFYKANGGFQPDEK
# Details: known from U.S. Pat. No. 5,994,391
structure (smiles),measurement,value
CCCCC1(CCCC)CS(=O)(=O)c2ccc(N(C)C)cc2[C@@H](c2ccc(OCc3ccc(C[N+]45CCN(CC4)CC5)cc3)cc2)[C@H]1O.[Cl-] [maralixibat chloride],"Effect on apical sodium co-dependent bile acid transport, in words",inhibits
